The values that follow come from patent US20230012368A1 (Hoffmann-La Roche Inc., priority 2018, published 2023).

In this experiment the test system is Acinetobacter baumannii ATCC 17978. Nature of the experiment: Antimicrobial susceptibility testing: 90% growth inhibitory concentration (IC90) determination. In kind it is cell-based. The procedure, abridged:
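Growth of the Acinetobacter baumannii strain was followed by optical density at 600 nm every 20 minutes for 16h at 35±2° C. Inoculum was ~5×10^(5) CFU/ml in Iso-Sensitest medium, with twofold compound dilutions (e.g. 50 to 0.097 μM final). The 90% inhibitory concentration was derived in log-phase growth.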

Setting [1] is: Acinetobacter baumannii, ATCC17978, 16 h, 90% growth inhibitory concentration, Acinetobacter baumannii ATCC17978, Iso-Sensitest broth, OD 600 nm over 16h, read-out: ATCC17978 IC90.
Setting [2] is: 90% growth inhibitory concentration, Acinetobacter baumannii ATCC17978, Iso-Sensitest broth, OD 600 nm over 16h, read-out: ATCC17978 IC90.

SMILES strings stand for the structures. Where a name gives a salt, the structure may show the parent alone. Read-outs that look alike come from different tables or passages of the source.

Consider `CCc1cc(Nc2nccn3c(-c4ccc(OC)c(F)c4F)cnc23)ccc1C(=O)NCC1(F)CNC1` [Example 526, 4-((3-(2,3-difluoro-4-methoxyphenyl)imidazo[1,2-a]pyrazin-8-yl)amino)-2-ethyl-N-((3-fluoroazetidin-3-yl)methyl)benzamide hydrochloride], for which the IC90 under setting [1] was found to be 0.21 µM.

In the case of `CCc1cc(Nc2nccn3c(-c4ccc(OC)c(F)c4F)cnc23)ccc1C(=O)NCCNC(=O)[C@@H](N)CCNC(=N)N` [Example 131, N-[2-[[(2S)-2-amino-4-guanidino-butanoyl]amino]ethyl]-4-[[3-(2,3-difluoro-4-methoxy-phenyl)imidazo[1,2-a]pyrazin-8-yl]amino]-2-ethyl-benzamide formate], under setting [1], the 90% effect concentration (IC90) stood at 0.09 µM.

Turning to `CCc1cc(Nc2nccn3c(-c4ccc(OC)c(F)c4F)cnc23)ccc1C(=O)NCCNC(=O)[C@@H](N)CCCN` [Example 397, N-[2-[[(2S)-2,5-diaminopentanoyl]amino]eth-yl]-4-[[3-(2,3-difluoro-4-methoxy-phenyl)imidazo[1,2-a]pyrazin-8-yl]amino]-2-ethyl-benzamide; formic acid], the IC90 under setting [1] turned out to be 0.41 µM.

`CCc1cc(Nc2nccn3c(-c4ccc(OC)c(F)c4F)cnc23)ccc1C(=O)NCCCCCCCN` [Example 517, N-(7-aminoheptyl)-4-((3-(2,3-difluoro-4-methoxyphenyl)imidazo[1,2-a]pyrazin-8-yl)amino)-2-ethylbenzamide hydrochloride]: the IC90 under setting [2] stood at 0.067 µM.

Consider `COc1ccc(-c2cnc3c(Nc4ccc(C(=O)N(C)CCC5CCNCC5)c(C)c4)nccn23)cc1F` [Example 11, hydrochloride], for which the 90% effect concentration (IC90) under setting [1] came out at 0.14 µM.

As for `COc1ccc(-c2cnc3c(Nc4ccc(C(=O)NCCCCCCN)c(C)c4)nccn23)c(F)c1F` [Example 493, N-(6-aminohexyl)-4-((3-(2,3-difluoro-4-methoxyphenyl)imidazo[1,2-a]pyrazin-8-yl)amino)-2-methylbenzamide hydrochloride], the IC90 under setting [1] was found to be 0.035 µM.

For `CCc1cc(Nc2nccn3c(-c4ccc(OC)c(F)c4F)cnc23)ccc1C(=O)NCCCCCCN1CCCCC1` [Example 534, 4-((3-(2,3-difluoro-4-methoxyphenyl)imidazo[1,2-a]pyrazin-8-yl)amino)-2-ethyl-N-(6-(piperidin-1-yl)hexyl)benzamide], the IC90 under setting [1] was determined as 0.041 µM.

Turning to `Cc1cc(Nc2nccn3c(-c4ccc(OCC#N)c(F)c4F)cnc23)ccc1C(=O)NC[C@@H](N)CNC(=O)[C@@H]1C[C@@H](O)CN1` [Example 473, (2S,4R)-N-[(2R)-2-amino-3-[[4-[[3-[4-(cyanomethoxy)-2,3-difluoro-phenyl]imidazo[1,2-a]pyrazin-8-yl]amino]-2-methyl-benzoyl]amino]propyl]-4-hydroxy-pyrrolidine-2-carboxamide; formic acid], the IC90 under setting [1] stood at 0.21 µM.

Regarding `COc1ccc(-c2cnc3c(Nc4ccc(C(=N)NCC(N)=O)c(C)c4)nccn23)cc1` [Example 17], the IC90 under setting [1] was determined as 0.55 µM.

With `CN(CCC1CCNCC1)C(=O)c1ccc(Nc2nccn3c(-c4ccc(OC(F)F)cc4)cnc23)cc1Cl` [Example 23, 2-chloro-4-((3-(4-(difluoromethoxy)phenyl)imidazo[1,2-a]pyrazin-8-yl)amino)-N-methyl-N-(2-(piperidin-4-yl)ethyl)benzamide hydrochloride], the concentration for an effect of 90% (IC90) under setting [1] came to 0.15 µM.

As for `CCc1cc(Nc2nccn3c(-c4ccc(OC)c(F)c4F)cnc23)ccc1C(=O)NCCCCCCn1ccnc1` [Example 535, N-(6-(1H-imidazol-1-yl)hexyl)-4-((3-(2,3-difluoro-4-methoxyphenyl)imidazo[1,2-a]pyrazin-8-yl)amino)-2-ethylbenzamide], the IC90 under setting [1] was 0.085 µM.

On to `COc1ccc(-c2cnc3c(Nc4ccc(C(=O)N(C)CCN5CCN(CC(F)F)CC5)c(C)c4)nccn23)cc1F` [Example 113, N-[2-[4-(2,2-difluoroethyl)piperazin-1-yl]ethyl]-4-[[3-(3-fluoro-4-methoxy-phenyl)imidazo[1,2-a]pyrazin-8-yl]amino]-N,2-dimethyl-benzamide; formic acid], for which the IC90 under setting [2] worked out at 2 µM.

In the case of `CCc1cc(Nc2nccn3c(-c4ccc(OC)c(F)c4F)cnc23)ccc1C(=O)NCC(C)CNC(=O)[C@@H](N)CCNC(=N)N` (mixture of isomers) [Example 401, rac-N-(3-((R)-2-amino-4-guanidinobutanamido)-2-methylpropyl)-4-((3-(2,3-difluoro-4-methoxyphenyl)imidazo[1,2-a]pyrazin-8-yl)amino)-2-ethylbenzamide diformate], the IC90 under setting [1] came to 0.22 µM.

In the case of `CCc1cc(Nc2nccn3c(-c4ccc(OC(F)F)c(F)c4F)cnc23)ccc1C(=O)NCCNC(=O)[C@H](N)CCCNC(=N)N` [Example 132, N-[2-[[(2R)-2-amino-5-guanidino-pentanoyl]amino]ethyl]-4-[[3-[4-(difluoromethoxy)-2,3-difluoro-phenyl]imidazo[1,2-a]pyrazin-8-yl]amino]-2-ethyl-benzamide formate], the concentration for an effect of 90% (IC90) under setting [1] is 0.23 µM.

Turning to `CCOP(=O)(OCC)N1CCC(CCN(C)C(=O)c2ccc(Nc3nccn4c(-c5ccc(OC(F)F)cc5)cnc34)cc2C)CC1` [Example 115, N-[2-(1-diethoxyphosphoryl-4-piperidyl)ethyl]-4-[[3-[4-(difluoromethoxy)phenyl]imidazo[1,2-a]pyrazin-8-yl]amino]-N,2-dimethyl-benzamide], under “Acinetobacter baumannii, ATCC17978, 16 h, read-out: ATCC17978 IC90 [μM]”, the IC90 came to 0.85 µM.

In the case of `COc1ccc(-c2cnc3c(Nc4ccc(C(=O)N(C)CC5CCOCC5)c(Cl)c4)nccn23)c(F)c1F` [Example 41, 2-chloro-4-[[3-(2,3-difluoro-4-methoxy-phenyl)imidazo[1,2-a]pyrazin-8-yl]amino]-N-methyl-N-(tetrahydropyran-4-ylmethyl)benzamide; 2,2,2-trifluoroacetic acid], the 90% effect concentration (IC90) under setting [2] turned out to be 0.62 µM.

Take `COc1ccc(-c2cnc3c(Nc4ccc(C(=O)N(C)CCC5CCNCC5)c(C)c4)nccn23)c(F)c1F` [Example 63, 4-((3-(2,3-difluoro-4-methoxyphenyl)imidazo [1,2-a]pyrazin-8-yl)amino)-N,2-dimethyl-N-(2-(piperidin-4-yl)ethyl)benzamide]: under setting [1], the 90% effect concentration (IC90) is 0.09 µM.

`COc1ccc(-c2cnc3c(Nc4ccc5c(c4)CCN(CCCO)C5=O)nccn23)c(F)c1F` [Example 327, 6-[[3-(2,3-difluoro-4-methoxyphenyl)imidazo[1,2-a]pyrazin-8-yl]amino]-2-(3-hydroxypropyl)-3,4-dihydroisoquinolin-1-one]: the concentration for an effect of 90% (IC90) under setting [1] is 0.29 µM.

Turning to `CCc1cc(Nc2nccn3c(-c4ccc(OC)c(F)c4F)cnc23)ccc1C(=O)NCCCC[C@H](N)C(=O)O` [Example 344, (2S)-2-amino-6-[[4-[[3-(2,3-difluoro-4-methoxyphenyl)imidazo[1,2-a]pyrazin-8-yl]amino]-2-ethylbenzoyl]amino]hexanoic acid;2,2,2-trifluoroacetic acid], the IC90 under setting [1] is 0.8 µM.

Consider `CCc1cc(Nc2nccn3c(-c4ccc(Oc5ccc(OC)cn5)c(F)c4F)cnc23)ccc1C(=O)NCCNC(=O)[C@H](N)CCCNC(=N)N` [Example 447, N-[2-[[(2R)-2-amino-5-guanidino-pentanoyl]amino]ethyl]-4-[[3-[2,3-difluoro-4-[(5-methoxy-2-pyridyl)oxy]phenyl]imidazo [1,2-a]pyrazin-8-yl]amino]-2-ethyl-benzamide; formic acid], for which the IC90 under setting [1] was 0.63 µM.

Consider `Cc1cc(Nc2nccn3c(-c4ccc(OC(F)F)cc4)cnc23)ccc1C(=O)NCCN1CCOCC1=O` [Example 247, 4-[[3-[4-(difluoromethoxy)phenyl]im-dazo[1,2-a]pyrazin-8-yl]amino]-2-methyl-N-[2-(3-oxomorpholin-4-yl)ethyl]benzamide], for which, under setting [1], the IC90 came out at 2.4 µM.

Take `CCc1cc(Nc2nccn3c(-c4ccc(OC)c(F)c4F)cnc23)ccc1C(=O)N[C@@H](CN)C(=O)OC` [Example 308, methyl (2S)-3-amino-2-[[4-[[3-(2,3-difluoro-4-methoxyphenyl)imidazo[1,2-a]pyrazin-8-yl]amino]-2-ethylbenzoyl]amino]propanoate; hydrochloride]: under setting [2], the IC90 was 0.66 µM.

With `Cc1cc(Nc2nccn3c(-c4ccc(OC(F)F)cc4)cnc23)ccc1C(=O)N(C)CCCSc1nnnn1CCN(C)C` [Example 177, 4-[[3-[4-(difluoromethoxy)phenyl]im-idazo[1,2-a]pyrazin-8-yl]amino]-N-[3-[1-[2-(dimethylamino)ethyl]tetrazol-5-yl]sulfanylpropyl]-N,2-dimethylbenzamide;2,2,2-trifluoroacetic acid], under setting [1], the IC90 came to 0.9 µM.

For the compound `Cc1cc(Nc2nccn3c(-c4ccc(OC(F)F)cc4)cnc23)ccc1C(=O)N(C)CC(=O)N1CCN(C)CC1` [Example 170, 4-[[3-[4-(difluoromethoxy)phenyl]im-idazo[1,2-a]pyrazin-8-yl]amino]-N,2-dimethyl-N-[2-(4-methylpiperazin-1-yl)-2-oxoethyl]benzamide], the concentration for an effect of 90% (IC90) under setting [1] came out at 1.9 µM.

Regarding `COc1ccc(-c2cnc3c(Nc4ccc(C(=O)N[C@@H](C)CNC(=N)C(C)C)c(C)c4)nccn23)c(F)c1F` [Example 499, 4-[[3-(2,3-difluoro-4-methoxyphenyl)imidazo[1,2-a]pyrazin-8-yl]amino]-2-methyl-#N!-[(2#S!)-1-(2-methylpropanimidoylamino)propan-2-yl]benzamide], the IC90 under setting [1] amounted to 0.3 µM.

`CCc1cc(Nc2nccn3c(-c4ccc(OC(F)F)c(F)c4F)cnc23)ccc1C(=O)N[C@@H](C)CNC(=O)C1CCN(CC2CNC2)CC1` (racemic) [Example 553, rac-(R)-1-(azetidin-3-ylmethyl)-N-(2-(4-((3-(4-(difluoromethoxy)-2,3-difluorophenyl)imidazo[1,2-a]pyrazin-8-yl)amino)-2-ethylbenzamido)propyl)piper-idine-4-carboxamide formate]: the 90% effect concentration (IC90) under setting [1] worked out at 0.26 µM.

For `COc1ccc(-c2cnc3c(Nc4ccc(C(=O)NCCN5CCN(C)CC5)c(C)c4)nccn23)cc1` [Example 49], under setting [1], the concentration for an effect of 90% (IC90) is 0.47 µM.
